We go through 22 molecules from patent publication US10696693B2, “Fused imidazole derivatives as TGF-beta inhibitors” (Rigel Pharmaceuticals, Inc., priority 2014, dated 2020).

SMILES strings stand for the structures. Like-named read-outs stand apart in the source and are kept apart here. Where only a bound is given, the exact number is not on record here.

Assay [1] relates to GDF8. The assay is described as follows: AlphaScreen SureFire p-SMAD3 (Ser423/425) assay, GDF8-stimulated cells. It is filed as cell-based. The conditions noted are these: Mus musculus. An excerpt:
(§1) The p-SMAD-3 (Ser423/425) SureFire® assay has been designed to measure the phosphorylation of endogenous cellular p-SMAD-3 (Ser423/425) in cell lysates and is a system for the screening of both modulators of receptor activation (e.g. agonists and antagonists) as well as agents acting intracellularly, such as small molecule inhibitors of upstream events. The assay will measure p-SMAD-3 (Ser423/425) activation by either cloned or endogenous receptors, and can be applied to primary cells.
(§2) 96-well Assay Protocol for 293FT and RMS13 adherent cells can be carried out manually or in high throughput with liquid handling robots.
(§3) The cells (80 μL of cells for 96 well plates) were plated in collagen coated tissue culture plates in RPMI or FreeStyle medium (Invitrogen) and incubated overnight. For manual analysis, 6 plates for GDF8, 6 plates for TGFβ, and optionally 6 plates for Alk5ca(ALK5 constitutively active) were used.
(§4) The compound dilution plates were prepared as follows: 12 μL of DMSO was transferred into first column of 96-well plate, and 16 μL of DMSO was transferred into columns 2-12 of the 96-well plate. 12 μL of compound solution was transferred into first column of the DMSO-containing 96-well plate. Three-fold dilution was performed up to column 10 of the DMSO-containing 96-well plate.
(§5) The plate containing cells were treated with compounds for about 10 minutes, and then ligand was added. GDF8 or TGFb was added to plates to stimulate. 293FL cells were stimulatedfor 90 minutes at 37° C.; and RMS13 cells were stimulated for 60 minutes at 37° C. The medium was then removed from the cells, and 1× Lysis Buffer (about 25 μL) was added and the plate was gently agitated on plate shaker for 5-10 minutes.
(§6) The lysate (5 μL) was then placed into 384-well shallow plates avoiding the generation of bubbles. To this, the Reaction Buffer+Activation Buffer+AlphaScreen® Acceptor beadsmixture (5 μL) was added. The plate was sealed with adhesive cover and shielded from light (e.g., with metal foil), and agitated gently on plate shaker for 2 hours at room temperature.
(§7) Dilution buffer+AlphaScreen® Donor beads (2 μL) was then added, and the plate was intubated on the plate shaker for an additional 1½ hours. After completion, the plate was read on Synergy-4 or Enspire plate reader, using AlphaScreen® pSMAD3® settings.
(§8) Representative results for inhibition of GDF8 (data=GDF pSMAD (MPC11) (μM)) and TGF-β (data=TGF-β pSMAD (MPC-11) (μM)) signaling are shown in Table 1(A=<0.05 μM, B=0.05−<0.1 μM, C=0.1−<1.0 μM, D=>1.0 μM): […]
(Alpha assays give light when donor and acceptor beads are brought close together.)

In assay [2] the test system is TGF-β. The assay is described as follows: AlphaScreen SureFire p-SMAD3 (Ser423/425) assay, TGF-β-stimulated cells. The conditions noted are these: Mus musculus. It is filed as cell-based.
Text: as §1, §2, §3, §4, §5, §6, §7, §8

Where [3] appears, read: MPC-11, p-SMAD3 (Ser423/425) AlphaScreen in cell lysate, MPC11, GDF8 stimulation, read-out: GDF8: inhibition of GDF8 signaling, GDF pSMAD (MPC11).
Where [4] appears, read: p-SMAD3 (Ser423/425) AlphaScreen in cell lysate, MPC-11, TGF-β stimulation, read-out: TGF-β: inhibition of TGF-β signaling, TGF-β pSMAD (MPC-11).
[5] abbreviates: MPC-11, read-out: GDF8: inhibition of GDF8 signaling, GDF pSMAD (MPC11), p-SMAD3 (Ser423/425) AlphaScreen in cell lysate, GDF8 stimulation.
Where [6] appears, read: MPC-11, read-out: TGF-β: inhibition of TGF-β signaling, TGF-β pSMAD (MPC-11), p-SMAD3 (Ser423/425) AlphaScreen in cell lysate, TGF-β stimulation.

Consider `Cc1cc(F)ccc1-c1nc2n(c1-c1ccc3nccn3c1)CCC2` [Compound 55, 6-(2-(4-fluoro-2-methylphenyl)-6,7-dihydro-5H-pyrrolo[1,2-a]imidazol-3-yl)imidazo[1,2-a]pyridine], for which the IC50 in assay [1] (setting [3]) is 0.1 to 1 µM; in assay [2] (setting [4]), more than 1 µM.
For `Cc1cc(F)c(Cl)cc1-c1nc2n(c1-c1ccc3ncnn3c1)CCC2` [Compound 56, 6-(2-(5-chloro-4-fluoro-2-methylphenyl)-6,7-dihydro-5H-pyrrolo[1,2-a]imidazol-3-yl)-[1,2,4]triazolo[1,5-a]pyridine], in that order: 0.1 to 1 µM and 0.1 to 1 µM.
`Cc1cc(F)c(Cl)cc1-c1nc2n(c1-c1ccc3nccn3c1)CCC2` [Compound 57, 6-(2-(5-chloro-4-fluoro-2-methylphenyl)-6,7-dihydro-5H-pyrrolo[1,2-a]imidazol-3-yl)imidazo[1,2-a]pyridine]: the IC50 in assay [1] (setting [3]) and in assay [2] (setting [4]) was 0.1 to 1 µM in each case.
Take `Cc1ccc(F)cc1-c1nc2n(c1-c1ccc3ncnn3c1)CCC2` [Compound 58, 6-(2-(5-fluoro-2-methylphenyl)-6,7-dihydro-5H-pyrrolo[1,2-a]imidazol-3-yl)-[1,2,4]triazolo[1,5-a]pyridine]: the IC50 in assay [1] (setting [3]) and in assay [2] (setting [4]) was more than 1 µM in each case.
Turning to `Cc1ccc(F)cc1-c1nc2n(c1-c1ccc3nccn3c1)CCC2` [Compound 59, 6-(2-(5-fluoro-2-methylphenyl)-6,7-dihydro-5H-pyrrolo[1,2-a]imidazol-3-yl)imidazo[1,2-a]pyridine], the IC50 in assay [1] (setting [3]) and in assay [2] (setting [4]) was more than 1 µM throughout.
As to `N#Cc1cnc2ccc(-c3c(-c4ccc(F)c(Cl)c4)nc4n3CCC4)cn12` [Compound 61, 6-(2-(3-chloro-4-fluorophenyl)-6,7-dihydro-5H-pyrrolo[1,2-a]imidazol-3-yl)imidazo[1,2-a]pyridine-3-carbonitrile], the IC50 in assay [1] (setting [3]) and in assay [2] (setting [4]) was 0.1 to 1 µM throughout.
In the case of `Cc1ccccc1-c1nc2n(c1-c1ccc3ncnn3c1)CCC2` [Compound 62, 6-(2-(2-methylphenyl)-6,7-dihydro-5H-pyrrolo[1,2-a]imidazol-3-yl)-[1,2,4]triazolo[1,5-a]pyridine], the IC50 in assay [1] (setting [5]) and in assay [2] (setting [6]) was more than 1 µM throughout.
Turning to `Cc1ccccc1-c1nc2n(c1-c1ccc3nccn3c1)CCC2` [Compound 63, 6-(2-(2-methylphenyl)-6,7-dihydro-5H-pyrrolo[1,2-a]imidazol-3-yl)imidazo[1,2-a]pyridine], the IC50 in assay [1] (setting [3]) and in assay [2] (setting [4]) was more than 1 µM in each case.
Regarding `Cc1cc(-c2nc3n(c2-c2ccc4ncnn4c2)CCC3)c(C)cc1F` [Compound 64, 6-(2-(4-fluoro-2,5-dimethylphenyl)-6,7-dihydro-5H-pyrrolo[1,2-a]imidazol-3-yl)-[1,2,4]triazolo[1,5-a]pyridine], the IC50 was 0.1 to 1 µM in assay [1] (setting [3]) and more than 1 µM in assay [2] (setting [4]).
The corresponding values for `Cc1cc(-c2nc3n(c2-c2ccc4nccn4c2)CCC3)c(C)cc1F` [Compound 65, 6-(2-(4-fluoro-2,5-dimethylphenyl)-6,7-dihydro-5H-pyrrolo[1,2-a]imidazol-3-yl)imidazo[1,2-a]pyridine] are 0.1 to 1 µM and more than 1 µM.
In the case of `Cc1c(F)ccc(-c2nc3n(c2-c2ccc4ncnn4c2)CCC3)c1Cl` [Compound 66, 6-(2-(2-chloro-4-fluoro-3-methylphenyl)-6,7-dihydro-5H-pyrrolo[1,2-a]imidazol-3-yl)-[1,2,4]triazolo[1,5-a]pyridine], the IC50 in assay [1] (setting [3]) was 0.1 to 1 µM; in assay [2] (setting [4]), more than 1 µM.
`Cc1c(F)ccc(-c2nc3n(c2-c2ccc4nccn4c2)CCC3)c1Cl` [Compound 67, 6-(2-(2-chloro-4-fluoro-3-methylphenyl)-6,7-dihydro-5H-pyrrolo[1,2-a]imidazol-3-yl)imidazo[1,2-a]pyridine]: the values for the IC50 in assay [1] (setting [3]) and in assay [2] (setting [4]) were 0.1 to 1 µM and more than 1 µM, respectively.
For `Cc1cc(-c2nc3n(c2-c2ccc4nccn4c2)CCC3)c(Cl)cc1F` [Compound 68, 6-(2-(2-chloro-4-fluoro-5-methylphenyl)-6,7-dihydro-5H-pyrrolo[1,2-a]imidazol-3-yl)imidazo[1,2-a]pyridine], in that order: 0.05 to 0.1 µM and 0.1 to 1 µM.
As for `Cc1cc(-c2nc3n(c2-c2ccc4ncnn4c2)CCC3)c(Cl)cc1F` [Compound 69, 6-(2-(2-chloro-4-fluoro-5-methylphenyl)-6,7-dihydro-5H-pyrrolo[1,2-a]imidazol-3-yl)-[1,2,4]triazolo[1,5-a]pyridine], the IC50 lay within 0.05 to 0.1 µM in assay [1] (setting [3]) and 0.1 to 1 µM in assay [2] (setting [4]).
As for `O=S(=O)(Nc1cccc(-c2nc3n(c2-c2ccc4nccn4c2)CCC3)c1)c1ccccc1F` [Compound 70, 2-fluoro-N-(3-(3-(imidazo[1,2-a]pyridin-6-yl)-6,7-dihydro-5H-pyrrolo[1,2-a]imidazol-2-yl)phenyl)benzenesulfonamide], the IC50 in assay [1] (setting [3]) and in assay [2] (setting [4]) was more than 1 µM throughout.
On to `Fc1ccc(-c2nc3n(c2-c2ccc4ncnn4c2)CC2(CCCC2)C3)cc1` [Compound 71, 3′-([1,2,4]triazolo[1,5-a]pyridin-6-yl)-2′-(4-fluorophenyl)-5′H,7′H-spiro[cyclopentane-1,6′-pyrrolo[1,2-a]imidazole]], for which the IC50 in assay [1] (setting [5]) and in assay [2] (setting [6]) was more than 1 µM each time.
Consider `Fc1ccc(-c2nc3n(c2-c2ccc4nccn4c2)CC2(CCCC2)C3)cc1` [Compound 72, 2′-(4-fluorophenyl)-3′-(imidazo[1,2-a]pyridin-6-yl)-5′H,7′H-spiro[cyclopentane-1,6′-pyrrolo[1,2-a]imidazole]], for which the IC50 in assay [1] (setting [3]) and in assay [2] (setting [4]) was more than 1 µM each time.
On to `Cc1c(F)ccc(-c2nc3n(c2-c2ccc4ncnn4c2)CCC3)c1C` [Compound 73, 6-(2-(4-fluoro-2,3-dimethylphenyl)-6,7-dihydro-5H-pyrrolo[1,2-a]imidazol-3-yl)-[1,2,4]triazolo[1,5-a]pyridine], for which the IC50 is 0.1 to 1 µM in assay [1] (setting [5]) and more than 1 µM in assay [2] (setting [6]).
As to `Cc1c(F)ccc(-c2nc3n(c2-c2ccc4nccn4c2)CCC3)c1C` [Compound 74, 6-(2-(4-fluoro-2,3-dimethylphenyl)-6,7-dihydro-5H-pyrrolo[1,2-a]imidazol-3-yl)imidazo[1,2-a]pyridine], the IC50 in assay [1] (setting [3]) was 0.1 to 1 µM; in assay [2] (setting [4]), more than 1 µM.
As for `OCC1CCC2(CC1)Cc1nc(-c3ccc(F)cc3)c(-c3ccc4ncnn4c3)n1C2` (centres unmarked) [Compound 75, (3′-([1,2,4]triazolo[1,5-a]pyridin-6-yl)-2′-(4-fluorophenyl)-5′H,7′H-spiro[cyclohexane-1,6′-pyrrolo[1,2-a]imidazol]-4-yl)methanol], the IC50 in assay [1] (setting [5]) and in assay [2] (setting [6]) was more than 1 µM each time.
Regarding `O=C(O)C1CCC2(CC1)Cc1nc(-c3ccc(F)cc3)c(-c3ccc4ncnn4c3)n1C2` (centres unmarked) [Compound 76, 3′-([1,2,4]triazolo[1,5-a]pyridin-6-yl)-2′-(4-fluorophenyl)-5′H,7′H-spiro[cyclohexane-1,6′-pyrrolo[1,2-a]imidazole]-4-carboxylic acid], the IC50 in assay [1] (setting [5]) and in assay [2] (setting [6]) was more than 1 µM throughout.
With `CCOC(=O)C1CCC2(CC1)Cc1nc(-c3ccc(F)cc3)c(-c3ccc4ncnn4c3)n1C2` (centres unmarked) [Compound 77, ethyl 3′-([1,2,4]triazolo[1,5-a]pyridin-6-yl)-2′-(4-fluorophenyl)-5′H,7′H-spiro[cyclohexane-1,6′-pyrrolo[1,2-a]imidazole]-4-carboxylate], the IC50 in assay [1] (setting [5]) and in assay [2] (setting [6]) was more than 1 µM each time.
